Four compounds from patent publication US4035386A, “Propynylamine-substituted dibenzo[b,f]thiepins and dibenz[b,f]oxepins” (Hoffmann-La Roche Inc., priority 1976, dated 1977) can be followed below.

Each structure is given as a SMILES string.

Data set [1] can be described thus: in vivo. The settings on record: rats, intraperitoneal; for ED50 at 6 h: rat, in vivo, ip, observed every 30 minutes over a 6-hour period, cataleptic = homolateral extremities crossed at least 10 seconds, read-out: ED50 (dose at which 50% of the animals are cataleptic); for cataleptic effect (in words): in comparison to chlorpromazine. The method, then: The following compounds were tested:
The foregoing compounds were compared to chlorpromazine, a well-known central depressant, especially well-known as a neuroleptic agent. The test animals are considered to be cataleptic when the homolateral extremities remain in the crossed position for at least 10 seconds. The number of cataleptic animals is recorded every 30 minutes over a 6-hour period.

For data set [2], the system named is homovanillinic acid (HVA). The experiment in a line: Determination of homovanillinic acid (HVA) in brains of treated rats; dopamine turnover in the basal ganglions. The format is in vivo. The settings on record: for Increase of HVA, %: two hours before killing, untreated rats set at 100%; for activity in HVA test compared with chlorpromazine (in words): p.o., in comparison to chlorpromazine. The method, then:
I. determination of Homovanillinic Acid
Two hours prior to being killed, rats are injected with the test substance.
Thereafter, the homovanillinic acid is extracted from the supernatent portion of a homogenized mixture of brains of the treated rats into butylacetate and later into an aqueous solution and is oxidized with potassium ferric cyanide to a fluorescent […]. […] The homovanillinic titer in untreated rats is arbitrarily set at 100%.

Take `CN(C)CCCN1c2ccccc2Sc2ccc(Cl)cc21` [Chlorpromazine, reference compound]: in data set [1], the ED50 at 6 h amounted to 6 mg/kg and the “cataleptic effect (in words)” value is recorded as “does demonstrate cataleptic effects”. The “Increase of HVA, %” value in data set [2] (20 mg/kg p.o.) is 321%.

Turning to `CN(C)CC#CC1=Cc2ccccc2Sc2ccc(Cl)cc21.O=C(O)/C=C\C(=O)O` [Product B, N,N-dimethyl-3-(8-chloro-dibenzo[b,f]thiepin-10-yl)-2-propynylamine maleate], in data set [1], the ED50 at 6 h turned out to be 100 mg/kg and the “cataleptic effect (in words)” value was “no or, respectively, very weak cataleptic effect”. Moreover, in data set [2] (50 mg/kg p.o.), the “Increase of HVA, %” value came to 370%. Besides, the “activity in HVA test compared with chlorpromazine (in words)” value in data set [2] is given as “as strong an activity as chlorpromazine”.

Regarding `COc1ccc2c(c1)Sc1ccc(Cl)cc1C(C#CCN(C)C)=C2.CS(=O)(=O)O` [Product C, N,N-dimethyl-3-(8-chloro-3-methoxydibenzo[b,f]thiepin-10-yl)-2-propynylamine methanesulfonate], in data set [1], the ED50 at 6 h is more than 100 mg/kg and the “cataleptic effect (in words)” value is “no or, respectively, very weak cataleptic effect”. In addition, in data set [2] (30 mg/kg p.o.), the “Increase of HVA, %” value came out at 320%. Further, the “activity in HVA test compared with chlorpromazine (in words)” value in data set [2] is given as “as strong an activity as chlorpromazine”.

As to `CSc1ccc2c(c1)C(C#CCN(C)C)=Cc1ccccc1S2.O=C(O)/C=C\C(=O)O` [Product A, N,N-dimethyl-3-[8-(methylthio)-dibenzo[b,f]thiepin-10-yl]-2-propynylamine maleate], in data set [1], the ED50 at 6 h was more than 100 mg/kg and the “cataleptic effect (in words)” value is listed as “no or, respectively, very weak cataleptic effect”. In addition, the “Increase of HVA, %” value in data set [2] (50 mg/kg p.o.) is 330%. For the same compound, in data set [2], the “activity in HVA test compared with chlorpromazine (in words)” value is reported as “as strong an activity as chlorpromazine”.

By ED50 is commonly meant the dose at which the effect has come halfway, by size or by number of responders.
